Source: ChEMBL document CHEMBL1201862, “PubChem BioAssay data set” (2004)
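Following 48 hours of exposure in 96-well plates, responses at five concentrations were used to interpolate endpoints linearly. Here, GI50 denotes the concentration required for 50% inhibition of growth.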 Activity calls are given as the source filed them. No stated cut-off is given here; in the data, active = GI50 up to about 1.1 µM and inactive = higher.

Assays:
Test in all cases: NCI-60 cell line screen, 48 h
SN12C = tested on: SN12C
SNB-19 = tested on: SNB-19
RXF 393 = tested on: RXF 393
NCI-H460 = tested on: NCI-H460
Hs-578T = tested on: Hs-578T
PC-3 = tested on: PC-3
NCI-H226 = tested on: NCI-H226
NCI/ADR-RES = tested on: NCI/ADR-RES
HOP-92 = tested on: HOP-92
RPMI-8226 = tested on: RPMI-8226
TK-10 = tested on: TK-10
OVCAR-8 = tested on: OVCAR-8
LOX IMVI = tested on: LOX IMVI
UACC-62 = tested on: UACC-62
SK-MEL-2 = tested on: SK-MEL-2
SNB-75 = tested on: SNB-75
HOP-62 = tested on: HOP-62
SF-268 = tested on: SF-268
K562 = tested on: K562
NCI-H23 = tested on: NCI-H23
786-0 = tested on: 786-0
A549 = tested on: A549
MDA-MB-435 = tested on: MDA-MB-435
OVCAR-4 = tested on: OVCAR-4
HCT-116 = tested on: HCT-116
CAKI-1 = tested on: CAKI-1
HT-29 = tested on: HT-29
IGROV-1 = tested on: IGROV-1
A498 = tested on: A498
SK-MEL-28 = tested on: SK-MEL-28
HCC 2998 = tested on: HCC 2998
SF-295 = tested on: SF-295
CCRF-CEM = tested on: CCRF-CEM
SR = tested on: SR
Malme-3M = tested on: Malme-3M
NCI-H522 = tested on: NCI-H522
HCT-15 = tested on: HCT-15
OVCAR-3 = tested on: OVCAR-3
BT-549 = tested on: BT-549
UO-31 = tested on: UO-31
MDA-MB-231 = tested on: MDA-MB-231
ACHN = tested on: ACHN
MCF7 = tested on: MCF7
SW-620 = tested on: SW-620
M14 = tested on: M14
EKVX = tested on: EKVX
UACC-257 = tested on: UACC-257
OVCAR-5 = tested on: OVCAR-5
KM12 = tested on: KM12
SF-539 = tested on: SF-539
DU-145 = tested on: DU-145
HL-60 = tested on: HL-60
U-251 = tested on: U-251
T47D = tested on: T47D
SK-MEL-5 = tested on: SK-MEL-5
COLO 205 = tested on: COLO 205
MOLT-4 = tested on: MOLT-4
SK-OV-3 = tested on: SK-OV-3

Q: Which GI50 (SN12C) does the source give for `CC1=C(C(=O)c2ccccc2)C23C(=O)N(c4ccccc4)C(=O)C2=C(O)C=CC3(O)N1` (stereo not given) here?
A: The GI50 was 30.3 µM (inactive).

Q: What about the GI50 (SNB-19) of the same compound?
A: The GI50 was 37.9 µM (inactive).

Q: And the GI50 (RXF 393)?
A: Its GI50 is 20.2 µM (inactive).

Q: What about the GI50 (NCI-H460) of the same compound?
A: The GI50 was 40.8 µM (inactive).

Q: What about the GI50 (Hs-578T) of the same compound?
A: Its GI50 is > 100 µM (inactive).

Q: What about the GI50 (PC-3) of the same compound?
A: The GI50 was 28.4 µM (inactive).

Q: And the GI50 (NCI-H226)?
A: Its GI50 is 35 µM (inactive).

Q: What about the GI50 (NCI/ADR-RES) of the same compound?
A: The GI50 was 51.4 µM (inactive).

Q: What about the GI50 (HOP-92) of the same compound?
A: The GI50 was 17.5 µM (inactive).

Q: What about the GI50 (RPMI-8226) of the same compound?
A: Its GI50 is 29.8 µM (inactive).

Q: What about the GI50 (TK-10) of the same compound?
A: Its GI50 is 67.1 µM (inactive).

Q: And the GI50 (OVCAR-8)?
A: The GI50 was 34 µM (inactive).

Q: What about the GI50 (LOX IMVI) of the same compound?
A: Its GI50 is 19.8 µM (inactive).

Q: And the GI50 (UACC-62)?
A: The GI50 was 20.1 µM (inactive).

Q: What about the GI50 (SK-MEL-2) of the same compound?
A: The GI50 was 21 µM (inactive).

Q: And the GI50 (SNB-75)?
A: Its GI50 is 24.2 µM (inactive).

Q: And the GI50 (HOP-62)?
A: Its GI50 is 32.5 µM (inactive).

Q: And the GI50 (SF-268)?
A: Its GI50 is 38.6 µM (inactive).

Q: What about the GI50 (K562) of the same compound?
A: The GI50 was 10.9 µM (inactive).

Q: What about the GI50 (NCI-H23) of the same compound?
A: Its GI50 is 44.2 µM (inactive).

Q: And the GI50 (786-0)?
A: Its GI50 is 35 µM (inactive).

Q: And the GI50 (A549)?
A: Its GI50 is 50.2 µM (inactive).

Q: What about the GI50 (MDA-MB-435) of the same compound?
A: The GI50 was 40 µM (inactive).

Q: And the GI50 (OVCAR-4)?
A: Its GI50 is 17.8 µM (inactive).

Q: And the GI50 (HCT-116)?
A: The GI50 was 37.9 µM (inactive).

Q: And the GI50 (CAKI-1)?
A: Its GI50 is 28.9 µM (inactive).

Q: And the GI50 (HT-29)?
A: The GI50 was 13.6 µM (inactive).

Q: What about the GI50 (IGROV-1) of the same compound?
A: Its GI50 is 25.6 µM (inactive).

Q: What about the GI50 (A498) of the same compound?
A: Its GI50 is 40 µM (inactive).

Q: And the GI50 (SK-MEL-28)?
A: The GI50 was 17.3 µM (inactive).

Q: And the GI50 (HCC 2998)?
A: Its GI50 is 26.7 µM (inactive).

Q: What about the GI50 (SF-295) of the same compound?
A: The GI50 was 43.4 µM (inactive).

Q: And the GI50 (CCRF-CEM)?
A: The GI50 was 35.1 µM (inactive).

Q: And the GI50 (SR)?
A: The GI50 was 15.4 µM (inactive).

Q: And the GI50 (Malme-3M)?
A: Its GI50 is 25.2 µM (inactive).

Q: And the GI50 (NCI-H522)?
A: Its GI50 is 12.7 µM (inactive).

Q: What about the GI50 (HCT-15) of the same compound?
A: Its GI50 is 24.6 µM.

Q: What about the GI50 (OVCAR-3) of the same compound?
A: Its GI50 is 21.4 µM (inactive).

Q: What about the GI50 (BT-549) of the same compound?
A: The GI50 was 20.4 µM (inactive).

Q: And the GI50 (UO-31)?
A: The GI50 was 12.2 µM (inactive).

Q: And the GI50 (MDA-MB-231)?
A: Its GI50 is 28 µM (inactive).

Q: And the GI50 (ACHN)?
A: The GI50 was 15.9 µM (inactive).

Q: What about the GI50 (MCF7) of the same compound?
A: The GI50 was 38.3 µM (inactive).

Q: What about the GI50 (SW-620) of the same compound?
A: Its GI50 is 25.9 µM (inactive).

Q: What about the GI50 (M14) of the same compound?
A: The GI50 was 40.2 µM (inactive).

Q: And the GI50 (EKVX)?
A: Its GI50 is 76.6 µM (inactive).

Q: And the GI50 (UACC-257)?
A: The GI50 was 44.5 µM (inactive).

Q: And the GI50 (OVCAR-5)?
A: The GI50 was 47.2 µM (inactive).

Q: And the GI50 (KM12)?
A: Its GI50 is 23.9 µM (inactive).

Q: And the GI50 (SF-539)?
A: The GI50 was 47.9 µM (inactive).

Q: And the GI50 (DU-145)?
A: Its GI50 is 44.1 µM (inactive).

Q: What about the GI50 (HL-60) of the same compound?
A: The GI50 was 16.6 µM (inactive).

Q: What about the GI50 (U-251) of the same compound?
A: The GI50 was 28.1 µM (inactive).

Q: What about the GI50 (T47D) of the same compound?
A: Its GI50 is 37.2 µM (inactive).

Q: What about the GI50 (SK-MEL-5) of the same compound?
A: The GI50 was 17.6 µM (inactive).

Q: And the GI50 (COLO 205)?
A: Its GI50 is 50.8 µM (inactive).

Q: Which results are given for `CCSC1=N/C(=C\c2ccccc2O)C(Nc2ccc(C)cc2)=N1`?
A: GI50 (SN12C): 66.7 µM (inactive); GI50 (SNB-19): 45.8 µM (inactive); GI50 (RXF 393): 75.2 µM (inactive); GI50 (NCI-H460): 38.5 µM (inactive); GI50 (Hs-578T): 56.1 µM (inactive); GI50 (PC-3): 25.9 µM (inactive); GI50 (NCI-H226): 50.5 µM (inactive); GI50 (NCI/ADR-RES): 56 µM (inactive); GI50 (HOP-92): 36.1 µM (inactive); GI50 (RPMI-8226): > 100 µM (inactive); GI50 (TK-10): > 100 µM (inactive); GI50 (OVCAR-8): 80.4 µM (inactive); GI50 (LOX IMVI): > 100 µM (inactive); GI50 (UACC-62): > 100 µM (inactive); GI50 (SK-MEL-2): 19.6 µM (inactive); GI50 (MOLT-4): 29.2 µM (inactive); GI50 (SNB-75): 46.1 µM (inactive); GI50 (HOP-62): 78.2 µM (inactive); GI50 (SF-268): 71.8 µM (inactive); GI50 (K562): 28.2 µM (inactive); GI50 (NCI-H23): 56 µM (inactive); GI50 (786-0): 91.6 µM (inactive); GI50 (A549): 47.4 µM (inactive); GI50 (MDA-MB-435): 34.4 µM (inactive); GI50 (HCT-116): 39.1 µM (inactive); GI50 (CAKI-1): 86.1 µM (inactive); GI50 (HT-29): > 100 µM (inactive); GI50 (IGROV-1): 32.8 µM (inactive); GI50 (A498): > 100 µM (inactive); GI50 (SK-MEL-28): 51.1 µM (inactive); GI50 (SF-295): 34.4 µM (inactive); GI50 (CCRF-CEM): 31 µM (inactive); GI50 (Malme-3M): 33.3 µM (inactive); GI50 (NCI-H522): 20.4 µM (inactive); GI50 (HCT-15): 59.7 µM; GI50 (OVCAR-3): 22.4 µM (inactive); GI50 (BT-549): > 100 µM (inactive); GI50 (UO-31): > 100 µM (inactive); GI50 (MDA-MB-231): > 100 µM (inactive); GI50 (ACHN): 83.6 µM (inactive); GI50 (SW-620): 50.6 µM (inactive); GI50 (M14): 48.8 µM (inactive); GI50 (EKVX): > 100 µM (inactive); GI50 (UACC-257): 99.1 µM (inactive); GI50 (OVCAR-5): > 100 µM (inactive); GI50 (KM12): 24.5 µM (inactive); GI50 (SK-OV-3): 42.7 µM (inactive); GI50 (SF-539): 75 µM (inactive); GI50 (DU-145): 90.2 µM (inactive); GI50 (HL-60): 39 µM (inactive); GI50 (U-251): 41.9 µM (inactive); GI50 (T47D): 50 µM (inactive); GI50 (SK-MEL-5): 30.2 µM (inactive); GI50 (COLO 205): > 100 µM (inactive)
